# Assay results reported in patent US10323018B2 (Millennium Pharmaceuticals, Inc., priority 2015, dated 2019).
# Key:
# [1] = tested on: PC3 cells; assay: PC3 growth inhibition (Cell-titer glo, 72 hours); format: cell-based; conditions: Homo sapiens, PC-3, 72 h, read-out: Percent Viability, PC3 cells, compound concentration 1.667 μM, 72 hours
# Procedure, shortened: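 After 72 h compound treatment in AIM serum-free medium (37 °C, 5% CO2), viability of overnight-plated PC3 cells (8×10^4 cells/ml, RPMI1640-maintained) is read by CellTiter-Glo luminescence versus DMSO. Curves give GI50, LD50 or single-concentration % remaining viability.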
# [2] = biological target: hNAMPT protein (Homo sapiens (Human), UniProt P43490); assay: NAMPT enzyme assay (TR-FRET/HTRF with BodiPY ligand); format: binding; conditions: for inhibition at 1 µM: NAMPT inhibition at compound concentration 1 μM, read-out: Percent Inhibition; for IC50: NAMPT inhibition, IC50 range class
# Sequence of hNAMPT protein (P43490 whole entry): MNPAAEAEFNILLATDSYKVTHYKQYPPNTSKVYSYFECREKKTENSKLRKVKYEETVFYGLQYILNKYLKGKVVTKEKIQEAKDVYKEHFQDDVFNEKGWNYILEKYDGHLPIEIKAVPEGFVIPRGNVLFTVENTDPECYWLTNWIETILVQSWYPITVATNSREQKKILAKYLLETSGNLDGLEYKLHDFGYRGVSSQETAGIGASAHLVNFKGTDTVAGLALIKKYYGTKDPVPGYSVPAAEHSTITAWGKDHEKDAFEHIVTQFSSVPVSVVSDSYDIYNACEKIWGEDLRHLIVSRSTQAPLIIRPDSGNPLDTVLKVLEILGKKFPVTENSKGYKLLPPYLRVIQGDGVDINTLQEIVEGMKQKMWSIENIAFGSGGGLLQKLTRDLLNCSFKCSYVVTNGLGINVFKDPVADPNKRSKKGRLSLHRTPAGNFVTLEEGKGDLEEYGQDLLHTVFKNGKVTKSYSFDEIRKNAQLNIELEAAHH
# Procedure, shortened: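 Ligand displacement by TR-FRET: BodiPY emission (520 nm) over terbium (486 nm) after 320 nm excitation. Compound, BodiPY ligand, hNAMPT and anti-6His-Tb incubated 1 h at room temperature, dark, at pH 7.5. Percent inhibition computed versus DMSO; concentration-response curves fitted for IC50.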
Compound,viability at 1.667 µM [1] [%],inhibition at 1 µM [2] [%],IC50 [2] [nM]
"CCOc1cc(-c2cc(F)ccc2OC)nc2cc(C(=O)NCCc3cnn[nH]3)ccc12 [Compound I-184, 4-ethoxy-2-(5-fluoro-2-methoxyphenyl)-N-[2-(1H-1,2,3-triazol-5-yl)ethyl]quinoline-7-carboxamide]",6,91,50 to 100
"CCOc1cc(-c2ccc(OC)nc2)nc2cc(C(=O)NCCc3c[nH]nn3)ccc12 [Compound I-185, 4-ethoxy-2-(6-methoxypyridin-3-yl)-N-[2-(1H-1,2,3-triazol-4-yl)ethyl]quinoline-7-carboxamide]",2,98,10 to 50
"CCOc1cc(-c2ccc(OC)nc2)nc2cc(C(=O)NCCc3nc[nH]n3)ccc12 [Compound I-186, 4-ethoxy-2-(6-methoxypyridin-3-yl)-N-[2-(1H-1,2,4-triazol-3-yl)ethyl]quinoline-7-carboxamide]",4,99,10 to 50
"CCOc1cc(-c2cc(F)ccc2OC)nc2cc(C(=O)NCc3nc4cnccc4[nH]3)ccc12 [Compound I-187, 4-ethoxy-2-(5-fluoro-2-methoxyphenyl)-N-(1H-imidazo[4,5-c]pyridin-2-ylmethyl)quinoline-7-carboxamide]",3,> 99,< 10
"CCOc1cc(-c2cc(OC)ncc2F)nc2cc(C(=O)NCc3nc4cnccc4[nH]3)ccc12 [Compound I-188, 4-ethoxy-2-(5-fluoro-2-methoxypyridin-4-yl)-N-(1H-imidazo[4,5-c]pyridin-2-ylmethyl)quinoline-7-carboxamide]",3,99,< 10
"CCOc1cc(-c2cc(OC)ncc2F)nc2cc(C(=O)NCCc3cnn[nH]3)ccc12 [Compound I-189, 4-ethoxy-2-(5-fluoro-2-methoxypyridin-4-yl)-N-[2-(1H-1,2,3-triazol-5-yl)ethyl]quinoline-7-carboxamide]",> 99,74,> 100
"CCOc1cc(-c2cccnc2OC)nc2cc(C(=O)NCCc3cnn[nH]3)ccc12 [Compound I-190, 4-ethoxy-2-(2-methoxypyridin-3-yl)-N-[2-(1H-1,2,3-triazol-5-yl)ethyl]quinoline-7-carboxamide]",5,94,50 to 100
"CCOc1cc(-c2ccnc(OC)c2)nc2cc(C(=O)NCCc3nnc[nH]3)ccc12 [Compound I-191, 4-ethoxy-2-(2-methoxypyridin-4-yl)-N-[2-(4H-1,2,4-triazol-3-yl)ethyl]quinoline-7-carboxamide]",10,79,> 100
"CCOc1cc(-c2cccnc2OC)nc2cc(C(=O)NCc3nc4ccncc4[nH]3)ccc12 [Compound I-192, 4-ethoxy-N-(3H-imidazo[4,5-c]pyridin-2-ylmethyl)-2-(2-methoxypyridin-3-yl)quinoline-7-carboxamide]",3,100,< 10
"CCOc1cc(-c2ccc(OC)nc2)nc2cc(C(=O)NCc3nc4cnccc4[nH]3)ccc12 [Compound I-193, 4-ethoxy-N-(1H-imidazo[4,5-c]pyridin-2-ylmethyl)-2-(6-methoxypyridin-3-yl)quinoline-7-carboxamide]",3,> 99,< 10
"CCOc1cc(-c2ccnc(OC)c2)nc2cc(C(=O)NCc3nc4cnccc4[nH]3)ccc12 [Compound I-194, 4-ethoxy-N-(1H-imidazo[4,5-c]pyridin-2-ylmethyl)-2-(2-methoxypyridin-4-yl)quinoline-7-carboxamide]",3,100,< 10
"CCOc1cc(-c2ccnc(OC)c2)nc2cc(C(=O)NCCc3cnn[nH]3)ccc12 [Compound I-195, 4-ethoxy-2-(2-methoxypyridin-4-yl)-N-[2-(1H-1,2,3-triazol-5-yl)ethyl]quinoline-7-carboxamide]",19,89,50 to 100
"COc1cc(-c2nc(-c3ccc(F)cc3)nc3cc(C(=O)NCCCc4ncc[nH]4)ccc23)ccn1 [Compound I-196, 2-(4-fluorophenyl)-N-[3-(1H-imidazol-2-yl)propyl]-4-(2-methoxypyridin-4-yl)quinazoline-7-carboxamide]",1,100,< 10
"COc1cc(-c2nc(-c3ccc(F)cc3)nc3cc(C(=O)NCCCc4nnc[nH]4)ccc23)ccn1 [Compound I-197, 2-(4-fluorophenyl)-4-(2-methoxypyridin-4-yl)-N-[3-(4H-1,2,4-triazol-3-yl)propyl]quinazoline-7-carboxamide]",3,97,10 to 50
CCOc1cc(-c2ccc(Cl)cc2)nc2cc(C(=O)NCCCc3nnc[nH]3)ccc12 [Compound I-198],3,94,–
"CCOc1cc(-c2cc(F)ccc2OC)nc2cc(C(=O)NCCCc3nnc[nH]3)ccc12 [Compound I-199, 4-ethoxy-2-(5-fluoro-2-methoxyphenyl)-N-[3-(4H-1,2,4-triazol-3-yl)propyl]quinoline-7-carboxamide]",2,100,10 to 50
"CCOc1cc(-c2ccc(F)cc2)nc2cc(C(=O)NCCCc3c[nH]nc3C)ccc12 [Compound I-201, 4-ethoxy-2-(4-fluorophenyl)-N-[3-(3-methyl-1H-pyrazol-4-yl)propyl]quinoline-7-carboxamide]",3,98,< 10
"CCOc1cc(-c2ccnc(C)c2)nc2cc(C(=O)NCCCc3nnc[nH]3)ccc12 [Compound I-202, 4-ethoxy-2-(2-methylpyridin-4-yl)-N-[3-(4H-1,2,4-triazol-3-yl)propyl]quinoline-7-carboxamide]",1,98,10 to 50
"CCOc1cc(-c2ccc(F)cc2)nc2cc(C(=O)NCCc3n[nH]nc3C)ccc12 [Compound I-203, 4-ethoxy-2-(4-fluorophenyl)-N-[2-(5-methyl-2H-1,2,3-triazol-4-yl)ethyl]quinoline-7-carboxamide]",2,98,< 10
"CCOc1cc(-c2ccc(F)cc2)nc2cc(C(=O)NCCCc3cc[nH]n3)ccc12 [Compound I-204, 4-ethoxy-2-(4-fluorophenyl)-N-[3-(1H-pyrazol-3-yl)propyl]quinoline-7-carboxamide]",2,100,< 10
"CCOc1cc(-c2cn[nH]c2)nc2cc(C(=O)NCCCc3nnc[nH]3)ccc12 [Compound I-205, 4-ethoxy-2-(1H-pyrazol-4-yl)-N-[3-(4H-1,2,4-triazol-3-yl)propyl]quinoline-7-carboxamide]",4,63,> 100
"CCOc1cc(-c2cnn(C)c2)nc2cc(C(=O)NCCCc3nnc[nH]3)ccc12 [Compound I-206, 4-ethoxy-2-(1-methyl-1H-pyrazol-4-yl)-N-[3-(4H-1,2,4-triazol-3-yl)propyl]quinoline-7-carboxamide]",2,66,> 100
"CCOc1cc(-c2ccccc2)nc2cc(C(=O)NCCCc3nnc[nH]3)ccc12 [Compound I-207, 4-ethoxy-2-phenyl-N-[3-(4H-1,2,4-triazol-3-yl)propyl]quinoline-7-carboxamide]",2,96,10 to 50
"CCOc1cc(-c2cncnc2)nc2cc(C(=O)NCCCc3nnc[nH]3)ccc12 [Compound I-208, 4-ethoxy-2-(pyrimidin-5-yl)-N-[3-(4H-1,2,4-triazol-3-yl)propyl]quinoline-7-carboxamide]",2,86,> 100
"CCOc1cc(-c2cccnc2)nc2cc(C(=O)NCCCc3nnc[nH]3)ccc12 [Compound I-209, 4-ethoxy-2-(pyridin-3-yl)-N-[3-(4H-1,2,4-triazol-3-yl)propyl]quinoline-7-carboxamide]",1,92,50 to 100
"CCOc1cc(-c2cncc(OC)c2)nc2cc(C(=O)NCCCc3nnc[nH]3)ccc12 [Compound I-210, 4-ethoxy-2-(5-methoxypyridin-3-yl)-N-[3-(4H-1,2,4-triazol-3-yl)propyl]quinoline-7-carboxamide]",1,94,10 to 50
"CCOc1cc(-c2cnc(Cl)cc2C)nc2cc(C(=O)NCCCc3nnc[nH]3)ccc12 [Compound I-211, 2-(6-chloro-4-methylpyridin-3-yl)-4-ethoxy-N-[3-(4H-1,2,4-triazol-3-yl)propyl]quinoline-7-carboxamide]",3,50,> 100
"CCOc1cc(-c2cnccc2OC)nc2cc(C(=O)NCCCc3nnc[nH]3)ccc12 [Compound I-212, 4-ethoxy-2-(4-methoxypyridin-3-yl)-N-[3-(4H-1,2,4-triazol-3-yl)propyl]quinoline-7-carboxamide]",2,69,> 100
"CCOc1cc(-c2cccnc2C)nc2cc(C(=O)NCCCc3nnc[nH]3)ccc12 [Compound I-213, 4-ethoxy-2-(2-methylpyridin-3-yl)-N-[3-(4H-1,2,4-triazol-3-yl)propyl]quinoline-7-carboxamide]",1,87,> 100
